The values below are quoted from earlier work in patent US10952981B2, “Liquid pharmaceutical compositions of baclofen for oral administration” (SLAYBACK PHARMA LLC, priority 2019, dated 2021).

Regarding `NCC(CC(=O)O)c1ccc(Cl)cc1` (stereo not drawn) [Baclofen, 4-amino-3-(4-chlorophenyl)-butanoic acid], the “Concentration of baclofen obtainable” value (aqueous 0.1N HCl or 0.1N NaOH, Ahuja (1985)) is on record as “greater than 20 mg/mL”. Further, where the note is “as referred to for Allen et al., 1996, Johnson and Hart, 1993”, the Equilibrium concentration is 4.3 mg/mL. Moreover, the “Solubility at near neutral pH” value (at a concentration of 2 mg/mL, near neutral pH) was “not soluble”. Further, the Solubility in chloroform entry (chloroform) is recorded as “insoluble”. Where the note is “methanol”, the Solubility in methanol result was “very slightly soluble”. The Solubility in water entry (water) was “slightly soluble”.
